Assay results from ChEMBL document CHEMBL3217627, “Designing glucokinase activators with reduced hypoglycemia risk: discovery of N,N-dimethyl-5-(2-methyl-6-((5-methylpyrazin-2-yl)-carbamoyl)benzofuran-4-yloxy)pyrimidine-2-carboxamide as a clinical candidate for the treatment of type 2 diabetes mellitus” (Medchemcomm, 2011).
In brackets after ≈: the same amount, converted by molar mass. Activity calls are given as the source filed them. No cut-off for these calls is given here.

Key:
[1] = Passive permeability across RRCK cells; assay type: ADME, cell-based, Canis lupus familiaris, MDCKII-LE; conditions: dog, MDCK; read-out: permeability
[2] = Kinetic solubility of the compound; assay type: physicochemical; conditions: read-out: Kinetic_solubility
[3] = biological target: Voltage-gated inwardly rectifying potassium channel KCNH2 (Homo sapiens, UniProt Q12809); assay: Inhibition of dofetilide binding to human ERG
[4] = Intrinsic clearance in human liver microsomes; assay type: ADME; conditions: read-out: CLH
Hexokinase-4 [5] = biological target: T1, Hexokinase-4 (Homo sapiens, UniProt P35557)
T1 sequence (P35557 whole entry): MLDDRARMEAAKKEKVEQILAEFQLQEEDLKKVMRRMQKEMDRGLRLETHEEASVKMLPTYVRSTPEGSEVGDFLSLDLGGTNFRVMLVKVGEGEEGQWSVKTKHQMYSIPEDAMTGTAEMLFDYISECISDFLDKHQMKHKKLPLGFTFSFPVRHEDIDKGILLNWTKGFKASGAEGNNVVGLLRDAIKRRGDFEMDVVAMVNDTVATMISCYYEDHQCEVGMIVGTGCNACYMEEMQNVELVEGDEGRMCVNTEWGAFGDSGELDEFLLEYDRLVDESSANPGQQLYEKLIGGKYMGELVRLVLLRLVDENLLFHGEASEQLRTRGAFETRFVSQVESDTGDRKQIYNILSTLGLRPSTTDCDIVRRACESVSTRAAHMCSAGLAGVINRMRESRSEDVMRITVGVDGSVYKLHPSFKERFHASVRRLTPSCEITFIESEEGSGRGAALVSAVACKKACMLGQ
Description: Activation of recombinant human glucokinase assessed as formation of glucose-6-phosphate by G6PDH/NADP coupled assay

hERG (KCNH2) = hERG (KCNH2) (Homo sapiens, UniProt Q12809); assay: Inhibition of dofetilide binding to human ERG at 10 uM relative to control; conditions: probe dofetilide
Hexokinase-4 [6] = biological target: T2, Hexokinase-4 (Rattus norvegicus, UniProt P17712); assay: Activation of rat glucokinase
T2 sequence (P17712 whole entry): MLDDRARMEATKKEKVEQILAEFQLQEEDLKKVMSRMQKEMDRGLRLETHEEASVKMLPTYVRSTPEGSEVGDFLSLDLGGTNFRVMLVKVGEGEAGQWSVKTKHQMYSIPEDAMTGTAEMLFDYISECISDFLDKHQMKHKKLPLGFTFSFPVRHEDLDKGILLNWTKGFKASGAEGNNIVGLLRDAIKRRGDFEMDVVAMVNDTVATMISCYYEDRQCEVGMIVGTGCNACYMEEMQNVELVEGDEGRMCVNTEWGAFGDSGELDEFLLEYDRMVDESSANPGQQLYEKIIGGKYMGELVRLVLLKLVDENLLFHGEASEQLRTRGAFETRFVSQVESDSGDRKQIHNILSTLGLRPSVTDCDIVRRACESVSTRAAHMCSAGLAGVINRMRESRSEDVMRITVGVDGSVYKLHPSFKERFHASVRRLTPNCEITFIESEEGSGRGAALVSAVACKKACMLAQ

Rattus norvegicus = assay: Antidiabetic activity in Sprague-Dawley rat assessed as reduction of post-prandial glucose excursion at 3 to 100 mg/kg, po administered for 60 mins followed by glucose challenge measured up to 120 mins by OGTT; assay type: functional, organism-based

Sequence of hERG (KCNH2) (Q12809 whole entry): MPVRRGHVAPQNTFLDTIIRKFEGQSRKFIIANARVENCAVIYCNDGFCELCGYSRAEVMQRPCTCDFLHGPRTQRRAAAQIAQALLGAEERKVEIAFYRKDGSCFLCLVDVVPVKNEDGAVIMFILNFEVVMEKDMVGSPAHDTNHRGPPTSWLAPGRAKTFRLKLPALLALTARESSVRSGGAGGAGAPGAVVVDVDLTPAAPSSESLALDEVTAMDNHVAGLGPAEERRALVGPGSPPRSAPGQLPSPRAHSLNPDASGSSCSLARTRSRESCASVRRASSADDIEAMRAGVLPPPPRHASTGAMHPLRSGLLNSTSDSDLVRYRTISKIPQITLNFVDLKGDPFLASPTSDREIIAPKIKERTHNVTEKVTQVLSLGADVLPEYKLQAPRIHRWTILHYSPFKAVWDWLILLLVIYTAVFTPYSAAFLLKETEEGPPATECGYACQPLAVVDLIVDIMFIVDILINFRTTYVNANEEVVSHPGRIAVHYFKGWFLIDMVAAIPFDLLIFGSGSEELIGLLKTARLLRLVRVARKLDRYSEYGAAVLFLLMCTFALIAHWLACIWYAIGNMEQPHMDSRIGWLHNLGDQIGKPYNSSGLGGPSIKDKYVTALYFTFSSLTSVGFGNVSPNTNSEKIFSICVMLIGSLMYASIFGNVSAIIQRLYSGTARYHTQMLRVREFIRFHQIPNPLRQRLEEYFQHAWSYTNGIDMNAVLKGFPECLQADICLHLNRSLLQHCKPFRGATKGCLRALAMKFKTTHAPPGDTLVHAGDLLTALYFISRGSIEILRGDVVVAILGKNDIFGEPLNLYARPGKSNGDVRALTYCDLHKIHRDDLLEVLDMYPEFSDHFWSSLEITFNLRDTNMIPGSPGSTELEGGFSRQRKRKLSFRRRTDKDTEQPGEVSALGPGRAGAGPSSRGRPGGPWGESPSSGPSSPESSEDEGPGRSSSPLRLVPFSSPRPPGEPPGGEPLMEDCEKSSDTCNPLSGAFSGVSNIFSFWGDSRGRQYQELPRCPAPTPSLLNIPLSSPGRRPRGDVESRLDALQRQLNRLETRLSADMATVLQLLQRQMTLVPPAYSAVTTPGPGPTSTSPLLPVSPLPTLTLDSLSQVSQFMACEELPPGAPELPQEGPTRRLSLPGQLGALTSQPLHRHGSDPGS
Sequence of Voltage-gated inwardly rectifying potassium channel KCNH2 (Q12809 whole entry): as above

Cc1cnc(NC(=O)c2cc(Oc3ccc(S(C)(=O)=O)cc3)c3cc(C)oc3c2)cn1
Papp [1]: 7.6 ×10⁻⁶ cm/s | solubility kinetic [2]: 3 µM (≈ 1.31 µg/mL) | IC50 [3]: 22000 nM | CLint scaled [4]: 13 mL/min/kg | EC50 (Hexokinase-4 [5]): 870 nM

Cc1cc2c(Oc3cnc(C(=O)N(C)C)cn3)cc(C(=O)Nc3ncccn3)cc2o1
inhibition at 10 µM (hERG (KCNH2)): 4% | EC50 (Hexokinase-4 [5]): > 100000 nM

CS(=O)(=O)c1ccc([C@@H](CC2CCCC2)C(=O)Nc2nccs2)cc1 [Ro-281675]
EC50 (Hexokinase-4 [6]): 235 nM

Cc1csc(NC(=O)c2cc(Sc3nccn3C)c(F)cc2N)n1
EC50 (Hexokinase-4 [5]): 66 nM

Cc1cnc(NC(=O)c2cc(Oc3cnc(C(=O)N4CCCCC4)cn3)c3cc(C)oc3c2)cn1
Papp [1]: 13.3 ×10⁻⁶ cm/s | solubility kinetic [2]: 24 µM (≈ 11.3 µg/mL) | inhibition at 10 µM (hERG (KCNH2)): 5% | CLint scaled [4]: 18.2 mL/min/kg | EC50 (Hexokinase-4 [5]): 261 nM

Cc1cc2c(Oc3cnc(C(=O)N(C)C)cn3)cc(C(=O)Nc3cnc(C(F)(F)F)cn3)cc2o1
Papp [1]: 9.7 ×10⁻⁶ cm/s | solubility kinetic [2]: 6 µM (≈ 2.92 µg/mL) | inhibition at 10 µM (hERG (KCNH2)): 18% | CLint scaled [4]: 16.1 mL/min/kg | EC50 (Hexokinase-4 [5]): 167 nM

Cc1cc2c(Oc3cnc(C(=O)N4CC5(COC5)C4)cn3)cc(C(=O)Nc3cnccn3)cc2o1
Papp [1]: 19.9 ×10⁻⁶ cm/s | solubility kinetic [2]: 43 µM (≈ 20.3 µg/mL) | CLint scaled [4]: 12.9 mL/min/kg | EC50 (Hexokinase-4 [5]): 2170 nM

Cc1cc2c(Oc3cnc(C(=O)N4CC(C)C4)cn3)cc(C(=O)Nc3cnccn3)cc2o1
Papp [1]: 14.9 ×10⁻⁶ cm/s | solubility kinetic [2]: 49 µM (≈ 21.8 µg/mL) | inhibition at 10 µM (hERG (KCNH2)): 11% | CLint scaled [4]: < 9.6 mL/min/kg | EC50 (Hexokinase-4 [5]): 393 nM

Cc1cc2c(Oc3cnc(C(=O)N(C)C)cn3)cc(C(=O)Nc3ccn(C)n3)cc2o1
Papp [1]: 15.4 ×10⁻⁶ cm/s | solubility kinetic [2]: 540 µM (≈ 227 µg/mL) | inhibition at 10 µM (hERG (KCNH2)): 8% | CLint scaled [4]: < 8.2 mL/min/kg | EC50 (Hexokinase-4 [5]): 331 nM

Cc1cnc(NC(=O)c2cc(Oc3ccc(C(=O)N(C)C)nc3)c3cc(C)oc3c2)cn1
Papp [1]: 28.5 ×10⁻⁶ cm/s | solubility kinetic [2]: 418 µM (≈ 180 µg/mL) | inhibition at 10 µM (hERG (KCNH2)): 5% | CLint scaled [4]: 11.6 mL/min/kg | EC50 (Hexokinase-4 [5]): 480 nM

Cc1cnc(NC(=O)c2cc(Oc3cnc(C(=O)N4CCC4)cn3)c3cc(C)oc3c2)cn1
Papp [1]: 17.4 ×10⁻⁶ cm/s | solubility kinetic [2]: 10 µM (≈ 4.44 µg/mL) | inhibition at 10 µM (hERG (KCNH2)): 4% | CLint scaled [4]: < 9.3 mL/min/kg | EC50 (Hexokinase-4 [5]): 85 nM

Cc1cnc(NC(=O)c2cc(Oc3ccc(C(=O)N(C)C)cc3)c3cc(C)oc3c2)cn1
Papp [1]: 5.9 ×10⁻⁶ cm/s | CLint scaled [4]: 17 mL/min/kg | EC50 (Hexokinase-4 [5]): 92 nM

Cc1ccc(Oc2cc(C(=O)Nc3cnc(C)cn3)cc3oc(C)cc23)cc1
Papp [1]: 0.3 ×10⁻⁶ cm/s | solubility kinetic [2]: 18 µM (≈ 6.72 µg/mL) | CLint scaled [4]: 47 mL/min/kg | EC50 (Hexokinase-4 [5]): 6610 nM

CS(=O)(=O)c1ccc([C@@H](C[C@H]2CCC(=O)C2)C(=O)Nc2cnccn2)cc1Cl [PIRAGLIATIN]
EC50 (Hexokinase-4 [6]): 100 nM | Activity (Rattus norvegicus): Active

Cc1cc2c(Oc3cnc(C(=O)N4CC(C)(C)C4)cn3)cc(C(=O)Nc3cnccn3)cc2o1
Papp [1]: 7.7 ×10⁻⁶ cm/s | solubility kinetic [2]: 78 µM (≈ 35.8 µg/mL) | CLint scaled [4]: 21.2 mL/min/kg | EC50 (Hexokinase-4 [5]): 705 nM

CNC(=O)c1cnc(Oc2cc(C(=O)Nc3cnc(C)cn3)cc3oc(C)cc23)cn1
Papp [1]: 20.9 ×10⁻⁶ cm/s | inhibition at 10 µM (hERG (KCNH2)): 0% | CLint scaled [4]: 10.1 mL/min/kg | EC50 (Hexokinase-4 [5]): > 5000 nM
